How the values were obtained:
Assay in all cases: KINOMEscan competition binding
Details in all cases: compound 10.0 µM
[1] = target: ULK3 (human) (UniProt Q6PHR2)
[2] = target: GRK7 (human) (UniProt Q8WTQ7)
[3] = target: EPHA5 (human) (UniProt P54756)
[4] = target: CAMK1G (human) (UniProt Q96NX5)
[5] = target: EPHB1 (human) (UniProt P54762)
[6] = target: JAK3 JH1 catalytic (human) (UniProt P52333)
[7] = target: TEK (human) (UniProt Q02763)
[8] = target: MAP3K10 (human) (UniProt Q02779)
[9] = target: MAPK14 (human) (UniProt Q16539)
[10] = target: CDKL3 (human) (UniProt Q8IVW4)
[11] = target: MKNK1 (human) (UniProt Q9BUB5)
[12] = target: DCLK1 (human) (UniProt O15075)
[13] = target: FLT4 (human) (UniProt P35916)
Chain of FLT4 (human) (P35916 whole entry, looked up): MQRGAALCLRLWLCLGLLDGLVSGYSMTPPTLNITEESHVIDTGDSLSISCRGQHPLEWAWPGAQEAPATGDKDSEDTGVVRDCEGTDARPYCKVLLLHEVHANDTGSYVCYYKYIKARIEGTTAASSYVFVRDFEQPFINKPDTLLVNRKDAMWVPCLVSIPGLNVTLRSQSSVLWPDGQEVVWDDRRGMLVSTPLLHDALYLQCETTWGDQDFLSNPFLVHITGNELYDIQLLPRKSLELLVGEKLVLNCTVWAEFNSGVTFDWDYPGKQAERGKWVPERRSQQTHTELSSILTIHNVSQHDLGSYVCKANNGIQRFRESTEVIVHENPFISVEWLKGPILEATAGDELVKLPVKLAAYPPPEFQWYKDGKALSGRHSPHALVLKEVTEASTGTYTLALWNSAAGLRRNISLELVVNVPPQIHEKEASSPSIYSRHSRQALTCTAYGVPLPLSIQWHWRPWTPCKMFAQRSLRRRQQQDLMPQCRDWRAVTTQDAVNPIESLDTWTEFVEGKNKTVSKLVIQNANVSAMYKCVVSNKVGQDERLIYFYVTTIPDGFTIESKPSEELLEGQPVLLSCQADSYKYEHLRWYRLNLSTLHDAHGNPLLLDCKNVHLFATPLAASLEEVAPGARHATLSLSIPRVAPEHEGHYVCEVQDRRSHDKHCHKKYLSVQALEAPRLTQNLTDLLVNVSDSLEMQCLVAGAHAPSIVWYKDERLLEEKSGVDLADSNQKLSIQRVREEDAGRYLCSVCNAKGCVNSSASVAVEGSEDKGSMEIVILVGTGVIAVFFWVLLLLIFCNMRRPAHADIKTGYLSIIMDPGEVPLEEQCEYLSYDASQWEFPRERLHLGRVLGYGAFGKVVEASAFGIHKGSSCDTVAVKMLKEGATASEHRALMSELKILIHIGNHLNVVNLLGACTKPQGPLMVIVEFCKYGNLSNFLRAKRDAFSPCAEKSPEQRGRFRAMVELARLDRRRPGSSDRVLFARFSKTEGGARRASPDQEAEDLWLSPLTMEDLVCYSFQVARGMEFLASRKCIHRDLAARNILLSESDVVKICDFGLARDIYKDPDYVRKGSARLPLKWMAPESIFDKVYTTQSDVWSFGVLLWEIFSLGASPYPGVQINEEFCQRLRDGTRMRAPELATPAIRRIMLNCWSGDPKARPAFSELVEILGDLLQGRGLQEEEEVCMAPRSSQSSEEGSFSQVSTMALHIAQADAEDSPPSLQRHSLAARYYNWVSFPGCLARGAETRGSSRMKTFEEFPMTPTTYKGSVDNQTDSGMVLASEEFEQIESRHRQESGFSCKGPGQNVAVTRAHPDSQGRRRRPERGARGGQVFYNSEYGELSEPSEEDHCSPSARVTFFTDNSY

[14] = test system: ABL1 (human), P00519 [M351T]
[15] = target: PRKACA (human) (UniProt P17612)
[16] = target: TTK (human) (UniProt P33981)
[17] = target: INSR (human) (UniProt P06213)
[18] = target: AURKA (human) (UniProt O14965)
[19] = test system: PIK3CA (human), P42336 [E545A]
[20] = target: FGFR3 (human) (UniProt P22607)
[21] = target: IGF1R (human) (UniProt P08069)
[22] = target: DAPK3 (human) (UniProt O43293)
[23] = target: HCK (human) (UniProt P08631)
[24] = target: CaMK1 (human) (UniProt Q14012)
[25] = target: MARK4 (human) (UniProt Q96L34)
[26] = target: MKNK2 (human) (UniProt Q9HBH9)
[27] = target: NTRK3 (human) (UniProt Q16288)
Chain of NTRK3 (human) (Q16288 whole entry, looked up): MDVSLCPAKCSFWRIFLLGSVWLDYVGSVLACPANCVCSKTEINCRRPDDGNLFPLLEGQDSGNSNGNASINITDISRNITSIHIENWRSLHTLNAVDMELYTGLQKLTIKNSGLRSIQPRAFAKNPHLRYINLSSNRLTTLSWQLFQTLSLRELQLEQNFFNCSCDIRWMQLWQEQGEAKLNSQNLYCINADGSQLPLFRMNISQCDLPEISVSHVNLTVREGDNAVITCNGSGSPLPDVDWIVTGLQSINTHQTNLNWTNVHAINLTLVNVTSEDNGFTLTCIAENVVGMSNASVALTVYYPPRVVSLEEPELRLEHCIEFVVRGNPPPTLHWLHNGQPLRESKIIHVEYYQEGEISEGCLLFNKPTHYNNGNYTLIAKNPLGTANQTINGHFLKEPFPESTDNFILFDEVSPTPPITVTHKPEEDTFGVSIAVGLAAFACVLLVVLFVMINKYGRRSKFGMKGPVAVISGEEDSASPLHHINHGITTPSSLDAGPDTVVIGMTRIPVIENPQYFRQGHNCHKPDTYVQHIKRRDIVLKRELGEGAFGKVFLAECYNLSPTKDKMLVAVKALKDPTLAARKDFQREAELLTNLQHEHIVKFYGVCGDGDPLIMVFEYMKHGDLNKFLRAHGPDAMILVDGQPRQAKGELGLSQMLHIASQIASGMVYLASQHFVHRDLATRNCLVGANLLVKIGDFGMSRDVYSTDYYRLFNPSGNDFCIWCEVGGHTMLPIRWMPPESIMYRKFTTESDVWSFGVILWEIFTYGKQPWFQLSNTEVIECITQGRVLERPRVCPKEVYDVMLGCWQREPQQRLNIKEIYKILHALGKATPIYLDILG

[28] = target: MAP2K4 (human) (UniProt P45985)
Chain of MAP2K4 (human) (P45985 whole entry, looked up): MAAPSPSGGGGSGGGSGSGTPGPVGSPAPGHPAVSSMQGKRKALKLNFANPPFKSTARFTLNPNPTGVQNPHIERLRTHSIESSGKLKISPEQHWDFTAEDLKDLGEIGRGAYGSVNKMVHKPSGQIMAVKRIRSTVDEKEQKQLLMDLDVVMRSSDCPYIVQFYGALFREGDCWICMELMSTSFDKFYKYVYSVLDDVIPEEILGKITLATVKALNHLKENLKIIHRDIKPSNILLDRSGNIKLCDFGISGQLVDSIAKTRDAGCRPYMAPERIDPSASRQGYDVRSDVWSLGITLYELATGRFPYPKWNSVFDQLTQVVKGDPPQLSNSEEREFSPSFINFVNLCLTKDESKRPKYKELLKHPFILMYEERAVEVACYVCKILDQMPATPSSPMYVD

[29] = target: MAP2K1 (human) (UniProt Q02750)
[30] = target: STK17A (human) (UniProt Q9UEE5)
[31] = target: TNIK (human) (UniProt Q9UKE5)
[32] = target: CDC42BPA (human) (UniProt Q5VT25)
[33] = target: MAP2K6 (human) (UniProt P52564)
Chain of MAP2K6 (human) (P52564 whole entry, looked up): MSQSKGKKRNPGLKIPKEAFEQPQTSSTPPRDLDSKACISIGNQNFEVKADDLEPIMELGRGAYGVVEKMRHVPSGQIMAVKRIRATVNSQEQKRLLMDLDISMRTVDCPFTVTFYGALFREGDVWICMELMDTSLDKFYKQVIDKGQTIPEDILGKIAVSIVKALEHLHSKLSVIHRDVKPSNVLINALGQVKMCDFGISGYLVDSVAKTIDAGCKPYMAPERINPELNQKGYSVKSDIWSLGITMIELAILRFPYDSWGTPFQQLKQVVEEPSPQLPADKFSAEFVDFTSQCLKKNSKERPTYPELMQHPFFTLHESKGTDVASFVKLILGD

[34] = target: ROCK1 (human) (UniProt Q13464)
Chain of ROCK1 (human) (Q13464 whole entry, looked up): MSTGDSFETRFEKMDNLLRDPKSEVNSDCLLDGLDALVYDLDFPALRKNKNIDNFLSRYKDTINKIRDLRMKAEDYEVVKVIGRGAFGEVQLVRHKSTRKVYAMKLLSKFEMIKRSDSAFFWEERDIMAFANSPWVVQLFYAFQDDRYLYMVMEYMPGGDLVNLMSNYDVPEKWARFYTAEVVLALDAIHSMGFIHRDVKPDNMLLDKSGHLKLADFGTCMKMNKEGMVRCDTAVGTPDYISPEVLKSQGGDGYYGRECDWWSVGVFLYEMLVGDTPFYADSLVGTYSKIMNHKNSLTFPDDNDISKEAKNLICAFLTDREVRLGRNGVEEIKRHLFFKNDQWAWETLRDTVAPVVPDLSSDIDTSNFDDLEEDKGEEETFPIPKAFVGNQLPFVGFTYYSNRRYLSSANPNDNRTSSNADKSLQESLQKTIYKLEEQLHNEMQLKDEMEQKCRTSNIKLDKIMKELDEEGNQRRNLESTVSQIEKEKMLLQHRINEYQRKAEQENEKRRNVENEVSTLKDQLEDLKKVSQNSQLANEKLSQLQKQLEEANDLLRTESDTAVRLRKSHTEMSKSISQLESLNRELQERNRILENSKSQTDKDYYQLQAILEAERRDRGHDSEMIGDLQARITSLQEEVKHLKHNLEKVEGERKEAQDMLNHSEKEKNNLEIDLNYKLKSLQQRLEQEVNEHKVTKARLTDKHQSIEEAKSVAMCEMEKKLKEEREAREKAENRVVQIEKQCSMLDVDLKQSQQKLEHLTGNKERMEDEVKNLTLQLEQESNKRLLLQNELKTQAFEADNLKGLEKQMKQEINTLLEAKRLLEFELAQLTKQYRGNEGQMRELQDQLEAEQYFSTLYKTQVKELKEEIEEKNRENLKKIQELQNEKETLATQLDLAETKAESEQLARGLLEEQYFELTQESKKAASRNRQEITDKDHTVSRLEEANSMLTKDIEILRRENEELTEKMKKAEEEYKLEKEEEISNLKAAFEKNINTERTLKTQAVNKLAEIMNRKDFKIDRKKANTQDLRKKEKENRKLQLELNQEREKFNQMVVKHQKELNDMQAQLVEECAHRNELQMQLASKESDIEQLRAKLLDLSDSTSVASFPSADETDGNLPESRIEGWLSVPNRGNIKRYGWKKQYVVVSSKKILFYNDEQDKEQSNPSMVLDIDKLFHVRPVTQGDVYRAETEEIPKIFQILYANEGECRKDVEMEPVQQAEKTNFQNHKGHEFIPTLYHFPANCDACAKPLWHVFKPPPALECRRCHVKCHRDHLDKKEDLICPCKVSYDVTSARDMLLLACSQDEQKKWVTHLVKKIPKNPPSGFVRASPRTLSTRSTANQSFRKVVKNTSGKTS

[35] = target: MYLK (human) (UniProt Q15746)
[36] = target: ULK1 (human) (UniProt O75385)
[37] = target: EIF2AK2 (human) (UniProt P19525)
[38] = target: MARK1 (human) (UniProt Q9P0L2)
Chain of MARK1 (human) (Q9P0L2 whole entry, looked up): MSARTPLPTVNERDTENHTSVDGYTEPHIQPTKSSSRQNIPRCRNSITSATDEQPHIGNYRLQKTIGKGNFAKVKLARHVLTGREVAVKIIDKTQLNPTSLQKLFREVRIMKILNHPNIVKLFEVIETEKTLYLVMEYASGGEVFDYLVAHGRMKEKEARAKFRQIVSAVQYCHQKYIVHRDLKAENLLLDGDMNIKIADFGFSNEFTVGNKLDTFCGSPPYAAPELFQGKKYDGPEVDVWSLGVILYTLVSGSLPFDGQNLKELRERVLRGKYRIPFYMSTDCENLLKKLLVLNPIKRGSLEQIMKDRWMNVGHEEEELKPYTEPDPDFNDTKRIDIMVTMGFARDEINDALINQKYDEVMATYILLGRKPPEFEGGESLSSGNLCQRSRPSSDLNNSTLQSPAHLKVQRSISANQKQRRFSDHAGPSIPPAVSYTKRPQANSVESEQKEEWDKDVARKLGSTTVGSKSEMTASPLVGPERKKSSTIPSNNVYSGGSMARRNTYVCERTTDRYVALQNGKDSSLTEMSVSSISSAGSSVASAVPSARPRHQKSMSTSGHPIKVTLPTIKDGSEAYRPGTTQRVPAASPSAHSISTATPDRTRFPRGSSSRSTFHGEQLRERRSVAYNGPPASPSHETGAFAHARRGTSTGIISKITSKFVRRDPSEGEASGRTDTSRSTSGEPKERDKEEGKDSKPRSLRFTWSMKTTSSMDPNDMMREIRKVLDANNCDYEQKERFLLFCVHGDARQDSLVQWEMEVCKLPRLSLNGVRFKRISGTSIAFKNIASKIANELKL

[39] = target: MAP4K4 (human) (UniProt O95819)
[40] = target: MAP3K15 (human) (UniProt Q6ZN16)
[41] = target: MAPK13 (human) (UniProt O15264)
[42] = target: PIK3CD (human) (UniProt O00329)

kinase still bound, per cent of control [1]: 100% | kinase still bound, per cent of control [2]: 51% | kinase still bound, per cent of control [3]: 99% | kinase still bound, per cent of control [4]: 70% | kinase still bound, per cent of control [5]: 91% | kinase still bound, per cent of control [6]: 98% | kinase still bound, per cent of control [7]: 73% | kinase still bound, per cent of control [8]: 100% | kinase still bound, per cent of control [9]: 72% | kinase still bound, per cent of control [10]: 100% | kinase still bound, per cent of control [11]: 84% | kinase still bound, per cent of control [12]: 100% | kinase still bound, per cent of control [13]: 97% | kinase still bound, per cent of control [14]: 82% | kinase still bound, per cent of control [15]: 100% | kinase still bound, per cent of control [16]: 83% | kinase still bound, per cent of control [17]: 91% | kinase still bound, per cent of control [18]: 100% | kinase still bound, per cent of control [19]: 100% | kinase still bound, per cent of control [20]: 97% | kinase still bound, per cent of control [21]: 95% | kinase still bound, per cent of control [22]: 69% | kinase still bound, per cent of control [23]: 100% | kinase still bound, per cent of control [24]: 98% | kinase still bound, per cent of control [25]: 100% | kinase still bound, per cent of control [26]: 89% | kinase still bound, per cent of control [27]: 62% | kinase still bound, per cent of control [28]: 82% | kinase still bound, per cent of control [29]: 100% | kinase still bound, per cent of control [30]: 16% | kinase still bound, per cent of control [31]: 68% | kinase still bound, per cent of control [32]: 100% | kinase still bound, per cent of control [33]: 57% | kinase still bound, per cent of control [34]: 68% | kinase still bound, per cent of control [35]: 64% | kinase still bound, per cent of control [36]: 96% | kinase still bound, per cent of control [37]: 81% | kinase still bound, per cent of control [38]: 96% | kinase still bound, per cent of control [39]: 76% | kinase still bound, per cent of control [40]: 100% | kinase still bound, per cent of control [41]: 100% | kinase still bound, per cent of control [42]: 100%
SMILES: Cn1cc(C2=C(c3ccc(Cl)cc3Cl)C(=O)NC2=O)c2ccccc21

Source: the kinase profiling compilation of Christmann-Franck et al. (2016)
